# Entries after “also recorded” stand apart in the source; their conditions may differ.
# Legend:
# [1] = test system: renal and hepatic parenchyma; experiment: Renal and hepatic toxicity; format: in vivo, mouse (Swiss female)
# Procedure: It was thus of interest to compare the effects of the novel compound of the invention with those of the already known compounds listed above on the kidney and the liver, i.e. the organs in which the greatest amount of platinum accumulates.
# Swiss female mice (Evic-Ceba, Bordeaux) of 20 to 22 g were treated by intraperitoneal route D0 and then sacrificed on D1, D4 and D10.
# Slices 5 microns thick were coloured with hemalun eosine stain.
# leukemia L 1210 [2] = experiment: Anti-tumour activity, leukemia L 1210, i.p. graft, i.p. treatment
# Procedure: […] females (CNRS, Orleans) of 20 to 22 g
# (a) i.p. graft--i.p. treatment
# 10^5 cells were grafted intraperitoneally on D0 and intraperitoneal treatment was carried out 24 hours later, D1, in one single injection.
# PHD and PHM were suspended in a 4% Klucel (hydroxy propyl cellulose) solution (the word "Klucel" is a registered trademark of Hercules Incorporated, Delaware, U.S.A.).
# The solutions of these compounds were prepared extemporaneously. The increase in life span, ILS (%), were calculated in comparison with the controls by the following formula: [formula] Deaths were recorded until day 30 for L 1210 tumour and until day 60 for S180 tumour.
# abdominal viscera = experiment: Peritonitis (adhesion and hardening of abdominal viscera); format: in vivo, mouse
# Procedure: (§1) The solutions of these compounds were prepared extemporaneously.
# As discussed above this problem seems to be linked to the presence of the 1,2-diaminocyclohexane ligand.
# [3] = test system: baboon (ear, Corti organ); experiment: Ototoxicity test in the baboon (auditory potentials, echocochleography); format: in vivo; details: baboon No 3, 200 mg/kg, D31
# Procedure: An ototoxicity test was carried out on baboon No. 3 (200 mg/kg) on D31. This test comprised the following: (a) Registering the auditory potentials when the ear was submitted to 1500 stimuli at 90, 80, 70, 60, 50, 40, 30, 20 and 10 decibels. The results gave the latency times for conduction from the ear to the brain. (b) Performing the same kind of test by echocochleography. This analysis was much more accurate than the previous one because it was only carried out in the Corti organ (cochlea). Frequencies of 8000, 4000, 2000 and 1000 Hertz at 90, 70, 50, 30, 20 and 10 decibels were used. Measurements were made using a Racia Medelec Empled MK4 1026. […] The properties of PHIC compared to those of PDD can be summarized as follows: […]
# [4] = Stability in sodium chloride solution; format: physicochemical; details: 9% sodium chloride
# Procedure: This compound has an exceptionally high degree of solubility.
# as §1
# leukemia L 1210 [5] = experiment: Anti-tumour activity, leukemia L 1210, s.c. graft, i.p. treatment; format: in vivo, mouse; details: s.c. graft 10^6 cells
# Procedure: (§2) I. […] L 1210: Ascite and Solid
# (c) s.c. graft--i.p. treatment
# 10^6 cells were grafted under the skin behind the head on D0 and intraperitoneal treatment was carried out in one single injection either on D1 or on D4.
# as §1
# leukemia L 1210 [6] = experiment: Anti-tumour activity, leukemia L 1210, i.p. graft, i.v. treatment; format: in vivo, mouse; details: for ILS: i.p. graft 10^5 cells
# Procedure: as §2
# (b) i.p. graft--i.v. treatment
# as §1
# DNA = experiment: Platinum fixed on DNA of L 1210 cells in vivo; set-up: species or system mouse (DBA/2); details: PDD 9 mg/kg, PHIC 150 mg/kg; two hours after treatment on D3
# Procedure: DBA/2 mice received 10^6 L 1210 cells on D0 and were treated three days later with an amount of platinum compound equal to the LD0 in the healthy mouse. Two hours after treatment on D3, the animals were sacrificed. […] Platinum was monitored by atomic absorption for whole cells and also on the DNA which was purified by phenol extraction. […] Under these conditions, one fixed platinum atom per 3000 nucleotides was found, i.e. a total of 1% of the amount which penetrated the cells was complexed to DNA. […] 10^-16 of platinum per cell.
# mouse = experiment: Acute toxicity in the mouse; format: in vivo, mouse (Swiss female); details: for loss of weight on the 4th day: i.p.
# Procedure: Acute toxicity, one single injection of the compound, was measured using Swiss female mice (Evic-Ceba, Bordeaux) of 21 to 23 g. and Sprague-Dawley rats. Ten animals were treated for each dose studied.
# L 1210 cells [7] = experiment: Cytotoxicity on L 1210 cells in culture; format: cell-based; details: read-out: ID50 (reduces by 50% the rate of growth of the cells); usually 24 to 48 hours contact
# L 1210 cells [8] = experiment: Cellular penetration of platinum in vivo into L 1210 cells; set-up: species or system mouse (DBA/2); details: PHIC 150 mg/kg, two hours after treatment on D3
# Procedure: DBA/2 mice received 10^6 L 1210 cells on D0 and were treated three days later with an amount of platinum compound equal to the LD0 in the healthy mouse. Two hours after treatment on D3, the animals were sacrificed. About 20.10^6 cells were extracted from the peritoneum and washed several times so as to eliminate the extra-cellular platinum and also any intracellular platinum which was not bound in a covalent manner with the cellular organelles. Platinum was monitored by atomic absorption for whole cells and also on the DNA which was purified by phenol extraction. […] This corresponds to 180.10^-16 g of platinum per leukemic cell. Under these conditions, one fixed platinum atom per 3000 nucleotides was found, i.e. a total of 1% of the amount which penetrated the cells was complexed to DNA. […] 10^-16 of platinum per cell.
compound,measurement,setting,value
"NC1CCCCC1N.O=C([O-])CC(C(=O)[O-])C([O-])C(=O)[O-].[H+].[H+].[Pt+2] (stereo not drawn) [PHIC, cis-isocitrato (1,2-diaminocyclohexane) platinum (II)]",nephrotoxicity,"[1]; LD0 level, mice",No
same,renal lesion,[1]; at a dose 20 times greater than that of PDD,does not cause any renal lesion
same,renal and hepatic alterations,"[1]; i.p. at ~LD0 (mg/kg): PDD 8, PAC 100, PHM 50, PHD 4, PHS 5, PHC 120, PHIC 150, D1, D4, D10",did not provoke any significant alterations
same,ILS,"leukemia L 1210 [2]; 5 mg/kg, single i.p. on D1",16%
same,ILS,"leukemia L 1210 [2]; 10 mg/kg, single i.p. on D1",40%
same,ILS,"leukemia L 1210 [2]; 25 mg/kg, single i.p. on D1",59%
same,ILS,"leukemia L 1210 [2]; 50 mg/kg, single i.p. on D1",79%
same,toxic death,"leukemia L 1210 [2]; 100 mg/kg i.p., excluded from ILS calculation",one toxic death
same,ILS,"leukemia L 1210 [2]; 100 mg/kg, single injection on D1",129%
same,Survivals,"leukemia L 1210 [2]; L 1210, 5 mg/kg i.p. on D1, day 30",0%
same,Survivals,"leukemia L 1210 [2]; L 1210, 10 mg/kg i.p. on D1, day 30",0%
same,Survivals,"leukemia L 1210 [2]; L 1210, 25 mg/kg i.p. on D1, day 30",0%
same,Survivals,"leukemia L 1210 [2]; L 1210, 50 mg/kg i.p. on D1, day 30",0%
same,Survivals,"leukemia L 1210 [2]; L 1210, 100 mg/kg i.p. on D1, day 30",20%
same,anti-tumour activity (in words),leukemia L 1210 [2]; leukemia L 1210,Very marked anti-tumor activity; also recorded: exerts the anti-tumour activity
same,Surviving animals having received L 1210 leukaemia and S 180 sarcoma,leukemia L 1210 [2]; summary for L 1210 and S 180,Yes
same,peritonitis,"abdominal viscera; healthy mice, i.p. injection",also observed in healthy mice
same,"occurrence of peritonitis in relation to the 1,2-diaminocyclohexane ligand",abdominal viscera; i.p.,"seems to be correlated with the presence of 1,2-diaminocyclohexane"
same,peritonitis / long-term toxic effect,abdominal viscera; i.v. administration,never encountered; also recorded: not observed
same,peritonitis,"abdominal viscera; tumour-bearing mice, i.p. treatment",most of the mice reaching 30 days of survival treatment with PHM and PHIC developed peritonitis; also recorded: causes peritonitis
same,ototoxic effect,[3],No ototoxic effect was detected
same,change to chlorinated derivative in sodium chloride solution,[4],changing in 24 hours to a yellow chlorinated derivative which precipitates
same,ILS,leukemia L 1210 [5]; 62.5 mg/kg i.p. on D1,26%
same,ILS,leukemia L 1210 [5]; 62.5 mg/kg i.p. on D4,17%
same,ILS,leukemia L 1210 [5]; 125 mg/kg i.p. on D4,50%
same,anti-tumour activity (in words),"leukemia L 1210 [6]; graft intraperitoneal, treatment intravenous",active
same,ILS,leukemia L 1210 [6]; 50 mg/kg i.v. on D1,25%
same,ILS,leukemia L 1210 [6]; 125 mg/kg i.v. on D1,41%
same,Number of fixed platinum atoms per nucleotide on DNA,DNA,1/3500
same,amount that penetrated the cells which was complexed to DNA,DNA,1%
same,nucleotides per one fixed platinum atom,DNA,3500 nucleotides
same,loss of weight on the 4th day,mouse; LD10 dose,3.5 g
same,loss of weight on the 4th day,mouse; LD50 dose,4.3 g
same,toxicity (in words),mouse; mice,Extremely low toxicity
same,LD10,"mouse; mouse, I.P.",135 mg/kg
same,LD50,"mouse; mouse, I.P.",236 mg/kg
same,LD90,"mouse; mouse, I.P.",365 mg/kg
same,LD10,"mouse; mouse, I.V.",348 mg/kg
same,LD50,"mouse; mouse, I.V.",421 mg/kg
same,LD90,"mouse; mouse, I.V.",489 mg/kg
same,LD50,"mouse; mouse, P.O.",> 1 000 mg/Kg
same,LD10 (dose killing 10% of the animals),"mouse; mouse, one single injection, Table V",153 mg/kg
same,IC50,L 1210 cells [7],420 nM
same,Amount of penetrating platinum per cell,L 1210 cells [8]; PDD 9 mg/kg,7e-14 g
same,platinum per cell,L 1210 cells [8],700. 10^-16

# Reference: US4452812A, “Organic complex of platinum, its preparation and its use for treating malignant tumors” (Sanofi, priority 1980, dated 1984)
